{
  "source": "patent US20260285850A1",
  "about": "“SUBSTITUTED OXAZOLIDINONES AND IMIDAZOLINONES AS HERBICIDES” (FMC CORPORATION, priority 2023, published 2026)",
  "type_in_all_cases": "in vivo",
  "key": {"[1]": {"tested_on": "horseweed (Erigeron canadensis)", "assay": "Test A postemergence application, visual injury rating 0-100", "summary_of_the_method": "(§1)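 Scale 0–100 (no effect to complete control), visual, versus untreated controls, read 10 days after application. Application: preemergence directed spray onto seeded loam–sand soil, or postemergence to young plants; formulation in non-phytotoxic solvent with surfactant.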"}, "[2]": {"tested_on": "oat, wild (wild oat, Avena fatua)", "assay": "Test A postemergence application, visual injury rating 0-100", "summary_of_the_method": "as §1"}, "corn (Zea mays) [3]": {"tested_on": "corn (Zea mays)", "assay": "Test A postemergence application, visual injury rating 0-100", "summary_of_the_method": "as §1"}, "[4]": {"tested_on": "barnyardgrass (Echinochloa crus-galli)", "assay": "Test A postemergence application, visual injury rating 0-100", "summary_of_the_method": "as §1"}, "[5]": {"tested_on": "blackgrass (Alopecurus myosuroides)", "assay": "Test A postemergence application, visual injury rating 0-100", "summary_of_the_method": "as §1"}, "[6]": {"tested_on": "green foxtail (Setaria viridis)", "assay": "Test A postemergence application, visual injury rating 0-100", "summary_of_the_method": "as §1"}, "soybean (Glycine max) [7]": {"tested_on": "soybean (Glycine max)", "assay": "Test A postemergence application, visual injury rating 0-100", "summary_of_the_method": "as §1"}, "[8]": {"tested_on": "galium (catchweed bedstraw, Galium aparine)", "assay": "Test A postemergence application, visual injury rating 0-100", "summary_of_the_method": "as §1"}, "[9]": {"tested_on": "wheat (Triticum aestivum)", "assay": "Test A postemergence application, visual injury rating 0-100", "summary_of_the_method": "as §1"}, "kochia (Bassia scoparia) [10]": {"tested_on": "kochia (Bassia scoparia)", "assay": "Test A postemergence application, visual injury rating 0-100", "summary_of_the_method": "as §1"}, "[11]": {"tested_on": "ragweed (common ragweed, Ambrosia artemisiifolia)", "assay": "Test A postemergence application, visual injury rating 0-100", "summary_of_the_method": "as §1"}, "[12]": {"tested_on": "ryegrass, Italian (italian ryegrass, Lolium multiflorum)", "assay": "Test A postemergence application, visual injury rating 0-100", "summary_of_the_method": "as §1"}, "[13]": {"tested_on": "palmer (palmer amaranth, palmer pigweed, Amaranthus palmeri)", "assay": "Test A postemergence application, visual injury rating 0-100", "summary_of_the_method": "as §1"}, "[14]": {"tested_on": "ducksalad (Heteranthera limosa)", "assay": "Test B flooded paddy test, visual plant response rating 0-100", "conditions": "250 g ai/ha, Flood, applied to paddy water, evaluated after 13 days", "summary_of_the_method": "(§2)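 Compounds applied to standing paddy water (3 cm above soil, maintained for the test duration) on 2-leaf-stage plants; visual rating vs controls at 13 days, greenhouse.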"}, "[15]": {"tested_on": "sedge, umbrella (small-flower umbrella sedge, Cyperus difformis)", "assay": "Test B flooded paddy test, visual plant response rating 0-100", "conditions": "250 g ai/ha, Flood, applied to paddy water, evaluated after 13 days", "summary_of_the_method": "as §2"}, "rice (Oryza sativa)": {"tested_on": "rice (Oryza sativa)", "assay": "Test B flooded paddy test, visual plant response rating 0-100", "conditions": "250 g ai/ha, Flood, applied to paddy water, evaluated after 13 days", "summary_of_the_method": "as §2"}, "[16]": {"tested_on": "barnyardgrass (Echinochloa crusgalli)", "assay": "Test B flooded paddy test, visual plant response rating 0-100", "conditions": "250 g ai/ha, Flood, applied to paddy water, evaluated after 13 days", "summary_of_the_method": "as §2"}, "[17]": {"tested_on": "oat, wild (wild oat, Avena fatua)", "assay": "Test A preemergence soil spray, visual injury rating 0-100", "conditions": "10 days", "summary_of_the_method": "as §1"}, "corn (Zea mays) [18]": {"tested_on": "corn (Zea mays)", "assay": "Test A preemergence soil spray, visual injury rating 0-100", "conditions": "10 days", "summary_of_the_method": "as §1"}, "[19]": {"tested_on": "barnyardgrass (Echinochloa crus-galli)", "assay": "Test A preemergence soil spray, visual injury rating 0-100", "conditions": "10 days", "summary_of_the_method": "as §1"}, "[20]": {"tested_on": "blackgrass (Alopecurus myosuroides)", "assay": "Test A preemergence soil spray, visual injury rating 0-100", "conditions": "10 days", "summary_of_the_method": "as §1"}, "[21]": {"tested_on": "green foxtail (Setaria viridis)", "assay": "Test A preemergence soil spray, visual injury rating 0-100", "conditions": "10 days", "summary_of_the_method": "as §1"}, "soybean (Glycine max) [22]": {"tested_on": "soybean (Glycine max)", "assay": "Test A preemergence soil spray, visual injury rating 0-100", "conditions": "10 days", "summary_of_the_method": "as §1"}, "[23]": {"tested_on": "wheat (Triticum aestivum)", "assay": "Test A preemergence soil spray, visual injury rating 0-100", "conditions": "10 days", "summary_of_the_method": "as §1"}, "kochia (Bassia scoparia) [24]": {"tested_on": "kochia (Bassia scoparia)", "assay": "Test A preemergence soil spray, visual injury rating 0-100", "conditions": "62 g ai/ha, 10 days, 0 = no effect, 100 = complete control", "summary_of_the_method": "as §1"}, "[25]": {"tested_on": "ragweed (common ragweed, Ambrosia artemisiifolia)", "assay": "Test A preemergence soil spray, visual injury rating 0-100", "conditions": "10 days", "summary_of_the_method": "as §1"}, "[26]": {"tested_on": "ryegrass, Italian (italian ryegrass, Lolium multiflorum)", "assay": "Test A preemergence soil spray, visual injury rating 0-100", "conditions": "10 days", "summary_of_the_method": "as §1"}, "[27]": {"tested_on": "palmer (palmer amaranth, palmer pigweed, Amaranthus palmeri)", "assay": "Test A preemergence soil spray, visual injury rating 0-100", "conditions": "10 days", "summary_of_the_method": "as §1"}, "[28]": {"conditions": "62 g ai/ha, postemergence, 10 days, 0 = no effect, 100 = complete control"}, "[29]": {"conditions": "Postemergence, 16 g ai/ha, greenhouse 10 days, 0 no effect, 100 complete control"}, "[30]": {"conditions": "62 g ai/ha, 0 = no effect, 100 = complete control"}},
  "data": [
    {"smiles": "CC(C)COC(=O)C1=CCC(NC(=O)C2(C)CN(c3cc(Cl)cc(Cl)c3)C(=O)O2)C1", "note": "(stereo not drawn) [Compound 155]", "values": [
      {"measurement": "Horseweed plant response rating (0-100)", "setting": "[1]; [28]", "value": 0},
      {"measurement": "Horseweed plant response rating (0 to 100 scale)", "setting": "[1]; [29]", "value": 0},
      {"measurement": "Oat, Wild plant response rating (0-100)", "setting": "[2]; [28]", "value": 0},
      {"measurement": "Oat, Wild plant response rating (0 to 100 scale)", "setting": "[2]; [29]", "value": 0},
      {"measurement": "Corn plant response rating (0-100)", "setting": "corn (Zea mays) [3]; [28]", "value": 0},
      {"measurement": "Corn plant response rating (0 to 100 scale)", "setting": "corn (Zea mays) [3]; [29]", "value": 0},
      {"measurement": "Barnyardgrass plant response rating (0-100)", "setting": "[4]; [28]", "value": 10},
      {"measurement": "Barnyardgrass plant response rating (0 to 100 scale)", "setting": "[4]; [29]", "value": 0},
      {"measurement": "Blackgrass plant response rating (0-100)", "setting": "[5]; [28]", "value": 0},
      {"measurement": "Blackgrass plant response rating (0 to 100 scale)", "setting": "[5]; [29]", "value": 0},
      {"measurement": "Foxtail, Green plant response rating (0-100)", "setting": "[6]; [28]", "value": 20},
      {"measurement": "Foxtail, Green plant response rating (0 to 100 scale)", "setting": "[6]; [29]", "value": 0},
      {"measurement": "Soybean plant response rating (0-100)", "setting": "soybean (Glycine max) [7]; [28]", "value": 20},
      {"measurement": "Soybean plant response rating (0 to 100 scale)", "setting": "soybean (Glycine max) [7]; [29]", "value": 0},
      {"measurement": "Galium plant response rating (0-100)", "setting": "[8]; [28]", "value": 70},
      {"measurement": "Galium plant response rating (0 to 100 scale)", "setting": "[8]; [29]", "value": 0},
      {"measurement": "Wheat plant response rating (0-100)", "setting": "[9]; [28]", "value": 0},
      {"measurement": "Wheat plant response rating (0 to 100 scale)", "setting": "[9]; [29]", "value": 0},
      {"measurement": "Kochia plant response rating (0-100)", "setting": "kochia (Bassia scoparia) [10]; [28]", "value": 40},
      {"measurement": "Kochia plant response rating (0 to 100 scale)", "setting": "kochia (Bassia scoparia) [10]; [29]", "value": 0},
      {"measurement": "Ragweed plant response rating (0-100)", "setting": "[11]; [28]", "value": 30},
      {"measurement": "Ragweed plant response rating (0 to 100 scale)", "setting": "[11]; [29]", "value": 0},
      {"measurement": "Ryegrass, Italian plant response rating (0-100)", "setting": "[12]; [28]", "value": 0},
      {"measurement": "Ryegrass, Italian plant response rating (0 to 100 scale)", "setting": "[12]; [29]", "value": 0},
      {"measurement": "Pigweed, Palmer plant response rating (0-100)", "setting": "[13]; [28]", "value": 0},
      {"measurement": "Pigweed, Palmer plant response rating (0 to 100 scale)", "setting": "[13]; [29]", "value": 0},
      {"measurement": "Plant response rating, Ducksalad (0 to 100 scale, 0 is no effect and 100 is complete control)", "setting": "[14]", "value": 0},
      {"measurement": "Plant response rating, Sedge, Umbrella (0 to 100 scale, 0 is no effect and 100 is complete control)", "setting": "[15]", "value": 0},
      {"measurement": "Plant response rating, Rice (0 to 100 scale, 0 is no effect and 100 is complete control)", "setting": "rice (Oryza sativa)", "value": 0},
      {"measurement": "Plant response rating, Barnyardgrass (0 to 100 scale, 0 is no effect and 100 is complete control)", "setting": "[16]", "value": 0},
      {"measurement": "Oat, Wild plant response rating", "setting": "[17]; 16 g ai/ha, 0 to 100 scale", "value": 0},
      {"measurement": "Oat, Wild plant response rating (0-100)", "setting": "[17]; [30]", "value": 0},
      {"measurement": "Corn plant response rating", "setting": "corn (Zea mays) [18]; 16 g ai/ha, 0 to 100 scale", "value": 0},
      {"measurement": "Corn plant response rating (0-100)", "setting": "corn (Zea mays) [18]; [30]", "value": 0},
      {"measurement": "Barnyardgrass plant response rating", "setting": "[19]; 16 g ai/ha, 0 to 100 scale", "value": 0},
      {"measurement": "Barnyardgrass plant response rating (0-100)", "setting": "[19]; [30]", "value": 10},
      {"measurement": "Blackgrass plant response rating", "setting": "[20]; 16 g ai/ha, 0 to 100 scale", "value": 0},
      {"measurement": "Blackgrass plant response rating (0-100)", "setting": "[20]; [30]", "value": 0},
      {"measurement": "Foxtail, Green plant response rating", "setting": "[21]; 16 g ai/ha, 0 to 100 scale", "value": 30},
      {"measurement": "Foxtail, Green plant response rating (0-100)", "setting": "[21]; [30]", "value": 30},
      {"measurement": "Soybean plant response rating", "setting": "soybean (Glycine max) [22]; 16 g ai/ha, 0 to 100 scale", "value": 0},
      {"measurement": "Soybean plant response rating (0-100)", "setting": "soybean (Glycine max) [22]; [30]", "value": 0},
      {"measurement": "Wheat plant response rating", "setting": "[23]; 16 g ai/ha, 0 to 100 scale", "value": 0},
      {"measurement": "Wheat plant response rating (0-100)", "setting": "[23]; [30]", "value": 10},
      {"measurement": "Kochia plant response rating (0-100)", "setting": "kochia (Bassia scoparia) [24]", "value": 20},
      {"measurement": "Ragweed plant response rating", "setting": "[25]; 16 g ai/ha, 0 to 100 scale", "value": 0},
      {"measurement": "Ragweed plant response rating (0-100)", "setting": "[25]; [30]", "value": 0},
      {"measurement": "Ryegrass, Italian plant response rating", "setting": "[26]; 16 g ai/ha, 0 to 100 scale", "value": 0},
      {"measurement": "Ryegrass, Italian plant response rating (0-100)", "setting": "[26]; [30]", "value": 0},
      {"measurement": "Pigweed, Palmer plant response rating", "setting": "[27]; 16 g ai/ha, 0 to 100 scale", "value": 0},
      {"measurement": "Pigweed, Palmer plant response rating (0-100)", "setting": "[27]; [30]", "value": 0}
    ]}
  ]
}
